From ChEMBL document CHEMBL1147193, “New 5-substituted thiazolo[3,2-b][1,2,4]triazol-6-ones: synthesis and anticancer evaluation” (2007)

What was measured:
Format in all cases: functional
A549 = experiment: Growth inhibition of human A549/ATCC cells after 48 hrs by SRB protein assay; conditions: A549, 48 h
CCRF-CEM = experiment: Growth inhibition of human CCRF-CEM cells after 48 hrs by SRB protein assay
UACC-257 = experiment: Growth inhibition of human UACC257 cells after 48 hrs by SRB protein assay; conditions: UACC-257, 48 h
M14 = experiment: Growth inhibition of human M14 cells after 48 hrs by SRB protein assay; conditions: M14, 48 h
PC-3 = experiment: Growth inhibition of human PC3 cells after 48 hrs by SRB protein assay; conditions: PC-3, 48 h
OVCAR-3 = experiment: Growth inhibition of human OVCAR-3 cells after 48 hrs by SRB protein assay; conditions: OVCAR-3, 48 h
NCI-H460 [1] = experiment: Anticancer activity against human NCI-H460 cells assessed as growth of cells at 100 uM relative to untreated cells
RPMI-8226 = experiment: Growth inhibition of human RPMI8226 cells after 48 hrs by SRB protein assay; conditions: RPMI-8226, 48 h
UO-31 = experiment: Growth inhibition of human UO31 cells after 48 hrs by SRB protein assay; conditions: UO-31, 48 h
SW-620 = experiment: Growth inhibition of human SW620 cells after 48 hrs by SRB protein assay; conditions: SW-620, 48 h
SK-MEL-28 = experiment: Growth inhibition of human SK-MEL-28 cells after 48 hrs by SRB protein assay; conditions: SK-MEL-28, 48 h
SK-MEL-5 = experiment: Growth inhibition of human SK-MEL-5 cells after 48 hrs by SRB protein assay; conditions: SK-MEL-5, 48 h
[2] = Growth inhibition of human MDA-MB-231/ATCC cells after 48 hrs by SRB protein assay; conditions: MDA-MB-231, 48 h
NCI-H522 = experiment: Growth inhibition of human NCI-H522 cells after 48 hrs by SRB protein assay; conditions: NCI-H522, 48 h
HT-29 = experiment: Growth inhibition of human HT29 cells after 48 hrs by SRB protein assay; conditions: HT-29, 48 h
COLO 205 = experiment: Growth inhibition of human COLO205 cells after 48 hrs by SRB protein assay; conditions: COLO 205, 48 h
HCT-116 = experiment: Growth inhibition of human HCT116 cells after 48 hrs by SRB protein assay; conditions: HCT-116, 48 h
OVCAR-4 = experiment: Growth inhibition of human OVCAR4 cells after 48 hrs by SRB protein assay; conditions: OVCAR-4, 48 h
OVCAR-8 = experiment: Growth inhibition of human OVCAR8 cells after 48 hrs by SRB protein assay; conditions: OVCAR-8, 48 h
NCI/ADR-RES = experiment: Growth inhibition of human NCI/ADR-RES cells after 48 hrs by SRB protein assay
HOP-62 = experiment: Growth inhibition of human HOP62 cells after 48 hrs by SRB protein assay; conditions: HOP-62, 48 h
SN12C = experiment: Growth inhibition of human SN12C cells after 48 hrs by SRB protein assay
ACHN = experiment: Growth inhibition of human ACHN cells after 48 hrs by SRB protein assay
U-251 = experiment: Growth inhibition of human U251 cells after 48 hrs by SRB protein assay; conditions: U-251, 48 h
MCF7 [3] = experiment: Growth inhibition of human MCF7 cells after 48 hrs by SRB protein assay; conditions: MCF7, 48 h
HCC 2998 = experiment: Growth inhibition of human HCC2998 cells after 48 hrs by SRB protein assay; conditions: HCC 2998, 48 h
SK-MEL-2 = experiment: Growth inhibition of human SK-MEL-2 cells after 48 hrs by SRB protein assay; conditions: SK-MEL-2, 48 h
MDA-MB-435 = experiment: Growth inhibition of human MDA-MB-435 cells after 48 hrs by SRB protein assay; conditions: MDA-MB-435, 48 h
TK-10 = experiment: Growth inhibition of human TK10 cells after 48 hrs by SRB protein assay; conditions: TK-10, 48 h
NCI-H322M = experiment: Growth inhibition of human NCI-H322M cells after 48 hrs by SRB protein assay
NCI-H460 [4] = experiment: Growth inhibition of human NCI-H460 cells after 48 hrs by SRB protein assay; conditions: NCI-H460, 48 h
MCF7 [5] = experiment: Anticancer activity against human MCF7 cells assessed as growth of cells at 100 uM relative to untreated cells
Hs-578T = experiment: Growth inhibition of human HS578T cells after 48 hrs by SRB protein assay
SF-295 = experiment: Growth inhibition of human SF295 cells after 48 hrs by SRB protein assay; conditions: SF-295, 48 h
KM12 = experiment: Growth inhibition of human KM12 cells after 48 hrs by SRB protein assay; conditions: KM12, 48 h
OVCAR-5 = experiment: Growth inhibition of human OVCAR5 cells after 48 hrs by SRB protein assay; conditions: OVCAR-5, 48 h
[6] = Growth inhibition of human MALME 3M cells after 48 hrs by SRB protein assay
T47D = experiment: Growth inhibition of human T47D cells after 48 hrs by SRB protein assay
NCI-H226 = experiment: Growth inhibition of human NCI-H226 cells after 48 hrs by SRB protein assay; conditions: NCI-H226, 48 h

SMILES: O=c1/c(=C/c2ccc(Cl)cc2)sc2ncnn12
- GI50 (A549): 21.4 µM
- TGI (A549; read-out: Log TGI (converted)): 83.2 µM
- GI50 (CCRF-CEM): 0.355 µM
- TGI (CCRF-CEM; read-out: Log TGI (converted)): 20 µM
- GI50 (UACC-257): 13.5 µM
- TGI (UACC-257; read-out: Log TGI (converted)): 30.2 µM
- GI50 (M14): 15.1 µM
- TGI (M14; read-out: Log TGI (converted)): 35.5 µM
- GI50 (PC-3): 11.7 µM
- TGI (PC-3; read-out: Log TGI (converted)): 28.8 µM
- GI50 (OVCAR-3): 13.2 µM
- TGI (OVCAR-3; read-out: Log TGI (converted)): 30.2 µM
- Activity (NCI-H460 [1]): 3%
- GI50 (RPMI-8226): 2.95 µM
- TGI (RPMI-8226; read-out: Log TGI (converted)): 17.4 µM
- GI50 (UO-31): 12.3 µM
- TGI (UO-31; read-out: Log TGI (converted)): 33.1 µM
- GI50 (SW-620): 14.8 µM
- TGI (SW-620; read-out: Log TGI (converted)): 30.9 µM
- GI50 (SK-MEL-28): 16.6 µM
- TGI (SK-MEL-28; read-out: Log TGI (converted)): 35.5 µM
- GI50 (SK-MEL-5): 10.7 µM
- TGI (SK-MEL-5; read-out: Log TGI (converted)): 23.4 µM
- GI50 [2]: 19.1 µM
- TGI ([2]; read-out: Log TGI (converted)): 43.7 µM
- GI50 (NCI-H522): 5.37 µM
- TGI (NCI-H522; read-out: Log TGI (converted)): 18.6 µM
- GI50 (HT-29): 15.1 µM
- TGI (HT-29; read-out: Log TGI (converted)): 58.9 µM
- GI50 (COLO 205): 17 µM
- TGI (COLO 205; read-out: Log TGI (converted)): 38.9 µM
- GI50 (HCT-116): 10.7 µM
- TGI (HCT-116; read-out: Log TGI (converted)): 25.7 µM
- GI50 (OVCAR-4): 17.4 µM
- TGI (OVCAR-4; read-out: Log TGI (converted)): 63.1 µM
- GI50 (OVCAR-8): 12.6 µM
- TGI (OVCAR-8; read-out: Log TGI (converted)): 36.3 µM
- GI50 (NCI/ADR-RES): 26.3 µM
- TGI (NCI/ADR-RES; read-out: Log TGI (converted)): 89.1 µM
- GI50 (HOP-62): 15.8 µM
- TGI (HOP-62; read-out: Log TGI (converted)): 35.5 µM
- GI50 (SN12C): 15.5 µM
- TGI (SN12C; read-out: Log TGI (converted)): 49 µM
- GI50 (ACHN): 14.5 µM
- TGI (ACHN; read-out: Log TGI (converted)): 38.9 µM
- GI50 (U-251): 10.5 µM
- TGI (U-251; read-out: Log TGI (converted)): 23.4 µM
- GI50 (MCF7 [3]): 6.31 µM
- TGI (MCF7 [3]; read-out: Log TGI (converted)): 30.9 µM
- GI50 (HCC 2998): 18.2 µM
- TGI (HCC 2998; read-out: Log TGI (converted)): 32.4 µM
- GI50 (SK-MEL-2): 12.6 µM
- TGI (SK-MEL-2; read-out: Log TGI (converted)): 28.2 µM
- GI50 (MDA-MB-435): 12.6 µM
- TGI (MDA-MB-435; read-out: Log TGI (converted)): 26.9 µM
- GI50 (TK-10): 16.6 µM
- TGI (TK-10; read-out: Log TGI (converted)): 31.6 µM
- GI50 (NCI-H322M): 13.2 µM
- TGI (NCI-H322M; read-out: Log TGI (converted)): 26.3 µM
- GI50 (NCI-H460 [4]): 17.4 µM
- TGI (NCI-H460 [4]; read-out: Log TGI (converted)): 44.7 µM
- Activity (MCF7 [5]): 10%
- GI50 (Hs-578T): 14.1 µM
- TGI (Hs-578T; read-out: Log TGI (converted)): 37.2 µM
- GI50 (SF-295): 17.8 µM
- TGI (SF-295; read-out: Log TGI (converted)): 35.5 µM
- GI50 (KM12): 10.5 µM
- TGI (KM12; read-out: Log TGI (converted)): 25.7 µM
- GI50 (OVCAR-5): 20 µM
- TGI (OVCAR-5; read-out: Log TGI (converted)): 34.7 µM
- GI50 [6]: 11.2 µM
- TGI ([6]; read-out: Log TGI (converted)): 26.9 µM
- GI50 (T47D): 21.4 µM
- TGI (T47D; read-out: Log TGI (converted)): > 100 µM
- GI50 (NCI-H226): 20 µM
- TGI (NCI-H226; read-out: Log TGI (converted)): 55 µM
